Data from patent US5792635A, “Method of inhibiting the sodium/proton exchanger NHE3 and method of inhibiting growth by administering squalamine” (priority 1995, dated 1998).
Values after ≈ are worked out from the molar mass of the structure shown.

Experiments:
[1] = tested on: Xenopus tadpoles; assay: Tadpole assay; details: Xenopus tadpole assay
[2] = tested on: C. albicans; assay: Antibiotic activity, MIC; type: cell-based; details: for MIC: Candida albicans
[3] = tested on: E. Coli; assay: Antibiotic activity, MIC; type: cell-based; details: for MIC: Escherichia coli
[4] = tested on: S. aureus; assay: Antibiotic activity, MIC; type: cell-based; details: for MIC: Staphylococcus aureus

| SMILES | functional similarity in tadpole assay [1] | MIC [2] [µg/mL] | MIC [3] [µg/mL] | MIC [4] [µg/mL] | further results |
| --- | --- | --- | --- | --- | --- |
| C[C@H](CCC(=O)O)[C@H]1CC[C@H]2[C@@H]3C[C@@H](O)[C@H]4C[C@@H](NCCN)CC[C@]4(C)[C@H]3CC[C@]12C [Compound 433] | functionally similar to compound 1437 |  |  |  |  |
| CC(CCC(=O)O)[C@H]1CCC2C3CC[C@@H]4C[C@H](NCCN)CC[C@]4(C)C3C[C@H](O)[C@@]21C (stereo partly drawn) [drawing 66] |  | 32 (≈ 73.6 µM) | 64 (≈ 147 µM) | 16 to 32 (≈ 36.8 to 73.6 µM) |  |
| COC(=O)CC[C@@H](C)[C@H]1CC[C@H]2[C@@H]3C[C@@H](O)[C@H]4C[C@@H](NCCN)CC[C@]4(C)[C@H]3CC[C@]12C [Compound 432] | functionally similar to compound 1437 |  |  |  |  |
| CC(C)CCC[C@@H](C)[C@H]1CC[C@H]2[C@@H]3[C@H](O)C[C@H]4C[C@H](N)CC[C@]4(C)[C@H]3CC[C@]12C [Compound 1363] | pharmacologic activity similar to Fraction 1 |  |  |  | potency in tadpole assay relative to Fraction 1 [1]: potencies comparable to that of Fraction 1 |
| COC(=O)CCC(C)[C@H]1CCC2C3C[C@@H](O)[C@H]4C[C@@H](NCCCNCCCCNCCCN)CC[C@]4(C)C3CC[C@@]21C (stereo partly drawn) [drawing 77] |  | 2 (≈ 3.38 µM) | 32 (≈ 54.2 µM) | 2 (≈ 3.38 µM) |  |
| COC(=O)CCC(C)[C@H]1CCC2C3CC[C@H]4C[C@@H](NCCCNCCCCNCCCN)CC[C@]4(C)C3CC[C@@]21C (stereo partly drawn) [drawing 75] |  | 2 (≈ 3.48 µM) | 32 (≈ 55.7 µM) | 1 to 2 (≈ 1.74 to 3.48 µM) |  |
| C[C@H](CCC(=O)O)[C@H]1CC[C@H]2[C@@H]3[C@H](O)C[C@@H]4C[C@@H](NCCCNCCCCNCCCN)CC[C@]4(C)[C@H]3CC[C@]12C [drawing 62] |  | 32 (≈ 55.5 µM) | 256 (≈ 444 µM) | 8 (≈ 13.9 µM) |  |
| C=C(C)C(=O)CCC(C)[C@H]1CCC2C3C(CC[C@@]21C)[C@@]1(C)CC[C@H](NCCCNCCCCN)C[C@@H]1C[C@H]3O (stereo partly drawn) |  | 4 (≈ 7.35 µM) | 32 (≈ 58.8 µM) | 4 (≈ 7.35 µM) |  |
| COC(=O)CCC(C)[C@H]1CCC2C3CC[C@@H]4C[C@H](NCCCNCCCCNCCCN)CC[C@]4(C)C3C[C@H](O)[C@@]21C (stereo partly drawn) [drawing 72] |  | 8 (≈ 13.5 µM) | 16 (≈ 27.1 µM) | 2 (≈ 3.38 µM) |  |
| CC(CCC(=O)O)[C@H]1CCC2C3C[C@@H](O)[C@H]4C[C@@H](NCCN)CC[C@]4(C)C3CC[C@@]21C (stereo partly drawn) [drawing 69] |  | > 256 | > 256 | > 256 |  |
| COC(=O)CCC(C)[C@H]1CCC2C3C[C@@H](O)[C@H]4C[C@@H](NCCN)CC[C@]4(C)C3CC[C@@]21C (stereo partly drawn) |  | 2 to 4 (≈ 4.46 to 8.91 µM) | 8 to 16 (≈ 17.8 to 35.7 µM) | 1 (≈ 2.23 µM) |  |
| COC(=O)CC[C@@H](C)[C@H]1CC[C@H]2[C@@H]3CC[C@@H]4C[C@H](NCCN)CC[C@]4(C)[C@H]3C[C@H](O)[C@]12C [Compound 416] | functionally similar to compound 1437 |  |  |  |  |
| CC(COS(=O)(=O)O)C(=O)CC[C@@H](C)[C@H]1CC[C@H]2[C@@H]3[C@H](O)C[C@H]4C[C@@H](NCCCNCCCCN)CC[C@]4(C)[C@H]3CC[C@]12C (stereo partly drawn) |  |  |  | 8 (≈ 12.5 µM) |  |
| COC(=O)CCC(C)[C@H]1CCC2C3C[C@@H](O)[C@H]4C[C@H](NCCN)CC[C@]4(C)C3CC[C@@]21C (stereo partly drawn) [drawing 67] |  | 8 (≈ 17.8 µM) | 32 to 64 (≈ 71.3 to 143 µM) | 16 (≈ 35.7 µM) |  |
| COC(=O)CC[C@@H](C)[C@H]1CC[C@H]2[C@@H]3C[C@@H](O)[C@H]4C[C@H](NCCN)CC[C@]4(C)[C@H]3CC[C@]12C [Compound 431] | functionally similar to compound 1437 |  |  |  |  |
| COC(=O)CC[C@@H](C)[C@H]1CC[C@H]2[C@@H]3CC[C@H]4C[C@H](NCCCNCCCCNCCCN)CC[C@]4(C)[C@H]3CC[C@]12C [Compound 458] | pharmacologic activity similar to that seen for FX 3 |  |  |  |  |
| CC(C)CCC[C@@H](C)[C@H]1CC[C@H]2[C@@H]3[C@H](O)C[C@H]4C[C@H](NCCCNCCCCN)CC[C@]4(C)[C@H]3CC[C@]12C [Compound 370] | pharmacologic activity similar to that seen for FX 3 |  |  |  |  |
| COC(=O)CCC(C)[C@H]1CCC2C3CC[C@H]4C[C@H](NCCCNCCCCNCCCN)CC[C@]4(C)C3CC[C@@]21C (stereo partly drawn) [drawing 74] |  | 2 (≈ 3.48 µM) | 32 (≈ 55.7 µM) | 4 (≈ 6.96 µM) |  |
| CC(C)CCCC(C)[C@H]1CCC2C3C(CC[C@@]21C)[C@@]1(C)CC[C@@H](N)C[C@@H]1C[C@H]3O (stereo partly drawn) |  | 2 (≈ 4.95 µM) | > 256 | 2 (≈ 4.95 µM) |  |
| CC(C)CCC[C@@H](C)[C@H]1CC[C@H]2[C@@H]3CC[C@H]4C[C@H](NCCCN5CCCCN=C5N)CC[C@]4(C)[C@H]3CC[C@]12C |  |  |  |  | MIC Values [2]: 32 µg/mL (≈ 59.2 µM); MIC Values [3]: > 256 µg/mL; MIC Values [4]: 2 µg/mL (≈ 3.7 µM) |
| COC(=O)CCC(C)[C@H]1CCC2C3C(CC[C@@]21C)[C@@]1(C)CC[C@H](NCCN)C[C@H]1C[C@H]3O (stereo partly drawn) [drawing 58] |  | 16 (≈ 35.7 µM) | 64 (≈ 143 µM) | 32 (≈ 71.3 µM) |  |
| COC(=O)CCC(C)[C@H]1CCC2C3C(CC[C@@]21C)[C@@]1(C)CC[C@@H](NCCN)C[C@H]1C[C@H]3O (stereo partly drawn) [drawing 59] |  | 16 (≈ 35.7 µM) | 16 (≈ 35.7 µM) | 16 (≈ 35.7 µM) |  |
| CC(CCC(=O)O)[C@H]1CCC2C3C(CC[C@@]21C)[C@@]1(C)CC[C@H](NCCN)C[C@H]1C[C@H]3O (stereo partly drawn) [drawing 64] |  | 256 (≈ 589 µM) | 128 (≈ 294 µM) | 128 (≈ 294 µM) |  |
